Measurements published in ChEMBL document CHEMBL1128542, “Synthesis and antiviral activity of benzyl-substituted imidazo [1,5-a]-1,3,5-triazine (5,8-diaza-7,9-dideazapurine) derivatives” (J Med Chem, 1995).

Experiments:
[1] = test system: HeLa; assay: Inhibitory concentration against respiratory syncytial virus in HeLa cells; type: functional, cell-based; conditions: Homo sapiens
[2] = test system: CCRF-CEM; assay: Cytotoxic concentration required to inhibit CEM cell proliferation by 50%.; type: functional; conditions: Homo sapiens
[3] = test system: MDCK; assay: Inhibitory concentration against influenza virus A in MDCK cells; type: functional, cell-based; conditions: Canis lupus familiaris
[4] = test system: Vero; assay: Inhibitory concentration against parainfluenza-3 virus in vero cells; type: functional, cell-based; conditions: Chlorocebus sabaeus
[5] = Minimum toxic concentration required to cause a microscopically detectable alteration of normal vero cell morphology; type: toxicity, cell-based; conditions: chlorocebus sabaeus, Vero cells; read-out: MTC
[6] = test system: MDCK; assay: Inhibitory concentration against influenza virus B in MDCK cells; type: functional, cell-based; conditions: Canis lupus familiaris
[7] = Minimum toxic concentration required to cause a microscopically detectable alteration of normal HeLa cell morphology; type: toxicity, cell-based; conditions: human, HeLa cells; read-out: MTC
[8] = Minimum toxic concentration required to cause a microscopically detectable alteration of normal MDCK cell morphology; type: toxicity, cell-based, Canis lupus familiaris; conditions: dog, MDCK cells; read-out: MTC
[9] = test system: Human immunodeficiency virus 2; assay: Inhibitory concentration against HIV-2 replication; type: functional, organism-based
[10] = test system: Human immunodeficiency virus 1; assay: Inhibitory concentration against HIV-1 replication; type: functional, organism-based

| Compound | IC50 [1] [µM] | CC50 [2] [µM] | IC50 [3] [µM] | IC50 [4] [µM] | MCC [5] [µM] | IC50 [6] [µM] | MCC [7] [µM] | MCC [8] [µM] | IC50 [9] [µM] | IC50 [10] [µM] |
| --- | --- | --- | --- | --- | --- | --- | --- | --- | --- | --- |
| Cc1ccc(Cc2ncn3c(=O)[nH]c(=S)[nH]c23)cc1 | 257 | > 735 | 54.4 | > 735 | > 735 | > 551 | > 735 | > 735 |  |  |
| Cc1nc(C)n2c(=O)[nH]c(=S)[nH]c12 | > 510 | 526 | 510 | > 1020 | 1020 | > 1020 | 510 | > 1020 |  |  |
| Cc1ncn2c(S)ncnc12 | > 602 | 789 | 181 | > 602 | 602 | 241 | 602 | 602 |  |  |
| Cc1ccc(Cc2ncn3c(O)ncnc23)cc1 | > 833 | > 833 | > 833 | > 833 | 625 | > 833 | > 833 | > 833 |  |  |
| Cc1ccc(CSC2NC(=O)n3c(C)nc(C)c3N2)cc1 (centres undefined) | 15.7 | 88.8 | 65.6 | > 131 | 328 | > 328 | 328 | 328 |  |  |
| Cc1nc(C)n2c1NC=NC2N (centres undefined) | > 1100 | 115 | > 1100 | > 1100 | > 1100 | > 1100 | > 1100 | > 1100 |  |  |
| CSc1ncnc2c(Cc3ccc(C)cc3)ncn12 | 22.2 | 389 | 14.8 | > 148 | > 370 | 74 | 74 | 74 |  |  |
| CSC1N=CNc2c(C)nc(C)n21 (centres undefined) | > 515 | 440 | 103 | > 515 | 515 | 103 | 515 | 515 |  |  |
| Cc1ccc(CSC2NC(=O)n3cnc(Cc4ccc(C)cc4)c3N2)cc1 (centres undefined) | 1.4 | 44.6 | 4.1 | > 104 | > 260 | 51.9 | 10.3 | 260 |  |  |
| Cc1ncn2c1NC=NC2N (centres undefined) | > 1340 | 746 | > 1340 | > 671 | 671 | > 1340 | > 1340 | > 1340 |  |  |
| CSC1NC(=O)n2cnc(CCCCCOCc3ccccc3)c2N1 (centres undefined) | 2.2 | > 120 | 11.1 | > 27.9 | > 112 | 55.8 | 11.1 | 55.8 |  |  |
| Cc1ccc(CSc2ncnc3c(Cc4ccc(C)cc4)ncn23)cc1 | > 278 | > 111 | > 278 | > 278 | 278 | > 278 | 278 | 278 |  |  |
| NC12CC3CC(CC(C3)C1)C2 [AMANTADINE] | > 661 |  | 661 |  |  | > 1320 | 661 | > 661 |  |  |
| Cc1ccc(Cc2ncn3c(S)ncnc23)cc1 | 0.6 | 32.8 | 2.7 | 6.2 | 4.6 | 0.6 | 6.2 | 3.1 |  |  |
| Cc1ccc(CSC2NC(=O)n3cnc(CCCCCOCc4ccccc4)c3N2)cc1 (centres undefined) | 2.6 | 343 | 5.3 | > 22.3 | > 89.2 | 223 | 44.6 | 223 |  |  |
| Cc1ncn2c(=O)[nH]c(=S)[nH]c12 | > 550 | 786 | > 1100 | > 1100 | 1100 | > 1100 | 549 | > 1100 |  |  |
| O=c1[nH]c(=S)[nH]c2c(Cc3ccccc3)ncn12 | > 775 | 430 | 54.2 | > 775 | 581 | > 581 | > 775 | > 775 |  |  |
| Sc1ncnc2c(Cc3ccccc3)ncn12 | 3.3 | 35.1 | 4.9 | 33 | 24.7 | 3.3 | 16.5 | 16.5 | 17.7 | 20.6 |
| Cc1nc(Cc2ccccc2)c2ncnc(O)n12 | > 417 | 262 | 625 | > 417 | 417 | > 833 | 417 | > 833 |  |  |
| Oc1ncnc2c(Cc3ccccc3)ncn12 | 664 | 633 | > 885 | > 885 | > 885 | > 885 | > 885 | > 885 |  |  |
| Cc1nc(C)n2c1NC(SCc1ccccc1)NC2=O (centres undefined) | 20.9 | 266 | 69.9 | > 140 | > 350 | 699 | > 524 | > 699 |  |  |
| Cc1nc(C)n2c(S)ncnc12 | > 556 | > 694 | 222 | > 556 | 556 | 833 | 556 | > 1110 |  |  |
| O=c1[nH]c(=S)[nH]c2c(CCCCCOCc3ccccc3)ncn12 | 23.2 | 259 | 174 |  |  | > 291 | 87.2 | 291 |  |  |
| NC(=O)c1ncn([C@@H]2O[C@H](CO)[C@@H](O)[C@H]2O)n1 [RIBAVIRIN] | 11.4 |  | 4.9 | 287 | > 1640 |  | > 820 | > 820 |  |  |
| Cc1ccc(Cc2ncn3c(N(C)C)ncnc23)cc1 | > 749 | 412 | > 749 | > 374 | 374 | > 749 | > 749 | > 749 |  |  |
| CSC1NC(=O)n2cnc(Cc3ccc(C)cc3)c2N1 (centres undefined) | 4 | 75.3 | 27.1 | 136 | > 339 | 67.7 | 20.3 | 67.7 |  |  |
| CN(C)c1ncnc2c(Cc3ccccc3)ncn12 | 395 | > 790 | > 790 | > 790 | > 790 | > 790 | > 790 | > 790 |  |  |
| CSC1N=CNc2c(C)ncn21 (centres undefined) | 111 | 176 | 22.2 | > 222 | 111 | 22.2 | 556 | 111 |  |  |
